# According to ChEMBL document CHEMBL1212897 (J Med Chem, 2010):
# How the values were obtained:
# Glucocorticoid receptor = target: T1, Glucocorticoid receptor (Homo sapiens, UniProt P04150)
# T1 sequence (P04150 whole entry): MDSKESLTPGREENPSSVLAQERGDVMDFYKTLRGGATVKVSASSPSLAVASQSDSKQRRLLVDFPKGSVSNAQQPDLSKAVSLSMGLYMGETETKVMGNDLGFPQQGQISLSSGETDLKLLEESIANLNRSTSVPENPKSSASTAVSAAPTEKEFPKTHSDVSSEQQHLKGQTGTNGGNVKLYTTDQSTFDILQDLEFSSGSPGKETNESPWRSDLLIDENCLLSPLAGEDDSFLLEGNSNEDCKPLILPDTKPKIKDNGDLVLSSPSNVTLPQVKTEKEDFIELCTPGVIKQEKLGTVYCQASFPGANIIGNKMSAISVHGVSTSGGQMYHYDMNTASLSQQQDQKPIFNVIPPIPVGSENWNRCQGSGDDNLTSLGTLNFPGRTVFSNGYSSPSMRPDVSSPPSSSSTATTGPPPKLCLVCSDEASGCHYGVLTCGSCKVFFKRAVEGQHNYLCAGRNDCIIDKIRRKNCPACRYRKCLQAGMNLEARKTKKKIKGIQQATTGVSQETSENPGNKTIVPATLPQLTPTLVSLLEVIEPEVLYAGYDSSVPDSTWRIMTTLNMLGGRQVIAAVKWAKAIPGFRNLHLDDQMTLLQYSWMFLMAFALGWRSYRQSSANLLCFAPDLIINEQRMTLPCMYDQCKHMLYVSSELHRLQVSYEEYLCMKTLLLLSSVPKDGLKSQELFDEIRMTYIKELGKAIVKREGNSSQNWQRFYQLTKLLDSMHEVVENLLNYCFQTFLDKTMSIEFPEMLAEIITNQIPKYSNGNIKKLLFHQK
# Estrogen receptor = target: T2, Estrogen receptor (Homo sapiens, UniProt P03372); test: Antagonist activity at estrogen receptor; format: functional
# T2 sequence (P03372 whole entry): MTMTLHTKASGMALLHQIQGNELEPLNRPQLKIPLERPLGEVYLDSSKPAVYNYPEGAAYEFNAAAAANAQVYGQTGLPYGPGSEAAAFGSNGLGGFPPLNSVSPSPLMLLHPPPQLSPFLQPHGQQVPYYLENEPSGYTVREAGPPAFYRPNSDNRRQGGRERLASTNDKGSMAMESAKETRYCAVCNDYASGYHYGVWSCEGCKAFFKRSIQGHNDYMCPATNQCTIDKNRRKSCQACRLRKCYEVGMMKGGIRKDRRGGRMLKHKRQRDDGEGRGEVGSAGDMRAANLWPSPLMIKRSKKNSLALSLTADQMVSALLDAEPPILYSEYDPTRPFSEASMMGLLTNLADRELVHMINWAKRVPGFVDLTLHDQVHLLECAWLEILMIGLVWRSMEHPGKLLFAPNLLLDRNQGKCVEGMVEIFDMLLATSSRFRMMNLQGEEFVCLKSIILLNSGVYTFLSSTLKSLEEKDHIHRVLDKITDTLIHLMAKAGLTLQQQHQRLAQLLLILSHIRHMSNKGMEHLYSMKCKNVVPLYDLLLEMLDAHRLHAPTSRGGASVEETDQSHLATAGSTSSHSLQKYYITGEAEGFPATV
structure (smiles),measurement,setting,value
CC(=O)S[C@@H]1CC2=CC(=O)CC[C@]2(C)[C@H]2CC[C@@]3(C)[C@@H](CC[C@@]34CCC(=O)O4)[C@H]12 [SPIRONOLACTONE],IC50,Glucocorticoid receptor,6.92 µM
same,IC50,Estrogen receptor,5.7 µM
